Key:
LYN = LYN (Homo sapiens, UniProt P07948); experiment: Kinobeads competition binding, HeLa Placenta lysate mix; design: endogenous in cells; details: 10 μM free compound
Description: (§1) To one aliquot of cell lysate 10 μM of the free compound (FIG. 3, CZC31326) was added and allowed to bind to proteins in the lysate. Then the affinity matrix with the immobilized compound was added to capture proteins that were not interacting with the previously added free compound. Beads were separated from the lysate and bead bound proteins were eluted in SDS sample buffer and subsequently separated by SDS-Polyacrylamide gel electrophoresis (FIG. 10). Suitable gel bands were cut out and subjected to in-gel proteolytic digestion with trypsin. The second lysate aliquot was processed identically, however no free compound was added (DMSO solvent control). Peptides originating from samples 1 and 2 were labeled with iTRAQ reagents (iTRAQ 114 and iTRAQ 117) and the combined samples were analyzed with a nano-flow liquid chromatography system coupled online to a tandem mass spectrometer (LC-MS/MS) experiment followed by iTRAQ reporter ion quantification in the MS/MS spectra as described in Example 2.

IKKe = target: T1, IKKe (Homo sapiens, UniProt Q14164); experiment: Kinobeads competition binding, L-363 cell lysate; design: endogenous in cells; host or cells: L-363 (treated with MG132 before harvest); details: 10 μM free compound, L-363 lysate
T1 sequence (Q14164 1-716): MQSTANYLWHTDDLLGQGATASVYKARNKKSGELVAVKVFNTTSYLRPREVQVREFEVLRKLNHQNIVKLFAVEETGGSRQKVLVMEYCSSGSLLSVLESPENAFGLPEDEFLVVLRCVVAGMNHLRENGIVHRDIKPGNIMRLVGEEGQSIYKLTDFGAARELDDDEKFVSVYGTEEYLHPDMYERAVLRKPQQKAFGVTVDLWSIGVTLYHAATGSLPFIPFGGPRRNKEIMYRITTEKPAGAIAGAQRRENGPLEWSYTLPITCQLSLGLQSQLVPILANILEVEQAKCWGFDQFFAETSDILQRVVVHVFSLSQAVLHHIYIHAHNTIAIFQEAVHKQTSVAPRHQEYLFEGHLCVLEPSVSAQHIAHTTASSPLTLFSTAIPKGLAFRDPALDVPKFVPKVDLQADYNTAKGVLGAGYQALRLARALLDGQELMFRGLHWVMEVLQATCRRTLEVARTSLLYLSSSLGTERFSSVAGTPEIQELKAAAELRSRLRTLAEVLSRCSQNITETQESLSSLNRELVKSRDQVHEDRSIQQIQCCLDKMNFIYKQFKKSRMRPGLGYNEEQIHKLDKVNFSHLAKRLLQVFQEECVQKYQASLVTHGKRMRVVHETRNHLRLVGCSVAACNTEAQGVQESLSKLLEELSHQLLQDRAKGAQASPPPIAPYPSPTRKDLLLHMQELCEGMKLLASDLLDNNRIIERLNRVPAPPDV
Description: as §1, with “8).” for “10).”
(§2) For this experiment the human plasma cell leukaemia line L-363 was used (German Collection of Microorganisms and Cell Cultures, DSMZ number ACC49, Braunschweig, Germany). Cells were treated for three hours with 20 μM of the proteasome inhibitor MG132 (Z-Leu-Leu-Leu-al, Sigma C2211) prior to cell harvesting.

IRE1 = IRE1 (Homo sapiens, UniProt O75460); experiment: Kinobeads competition binding, L-363 cell lysate; design: Identified kinases with CZC31326 from L-363 cell lysate; endogenous in cells; host or cells: L-363 (MG132-treated); details: 10 μM free compound, L-363 lysate
Chain of IRE1 (O75460 19-977): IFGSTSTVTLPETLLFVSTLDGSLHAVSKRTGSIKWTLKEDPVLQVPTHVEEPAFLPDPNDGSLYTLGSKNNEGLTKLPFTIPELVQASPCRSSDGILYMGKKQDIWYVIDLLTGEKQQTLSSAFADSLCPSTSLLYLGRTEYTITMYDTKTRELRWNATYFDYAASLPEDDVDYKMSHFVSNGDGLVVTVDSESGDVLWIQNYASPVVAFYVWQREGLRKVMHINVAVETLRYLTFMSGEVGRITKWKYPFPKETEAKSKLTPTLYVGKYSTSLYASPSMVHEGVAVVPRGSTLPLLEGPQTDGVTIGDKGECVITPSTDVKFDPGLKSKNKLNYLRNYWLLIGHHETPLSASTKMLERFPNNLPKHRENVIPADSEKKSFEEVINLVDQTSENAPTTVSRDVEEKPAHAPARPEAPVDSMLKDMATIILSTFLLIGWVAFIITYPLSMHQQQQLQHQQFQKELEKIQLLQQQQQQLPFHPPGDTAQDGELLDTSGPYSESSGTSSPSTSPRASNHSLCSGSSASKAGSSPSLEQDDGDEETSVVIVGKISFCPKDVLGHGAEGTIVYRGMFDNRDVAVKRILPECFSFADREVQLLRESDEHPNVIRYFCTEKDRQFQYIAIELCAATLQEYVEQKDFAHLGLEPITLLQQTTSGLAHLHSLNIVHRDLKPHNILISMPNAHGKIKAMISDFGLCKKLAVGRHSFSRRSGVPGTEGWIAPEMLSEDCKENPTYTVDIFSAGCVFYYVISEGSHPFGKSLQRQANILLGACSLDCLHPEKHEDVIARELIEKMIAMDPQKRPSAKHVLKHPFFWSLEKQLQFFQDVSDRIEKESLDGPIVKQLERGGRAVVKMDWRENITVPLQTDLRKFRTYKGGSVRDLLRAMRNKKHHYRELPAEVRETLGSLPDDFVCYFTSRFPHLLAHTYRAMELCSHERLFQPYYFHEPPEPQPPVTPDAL
Description: as §1, with “8).” for “10).”
as §2

JAK1 = JAK1 (Homo sapiens, UniProt P23458); experiment: Kinobeads competition binding, L-363 cell lysate; design: Identified kinases with CZC31326 from L-363 cell lysate; endogenous in cells; host or cells: L-363 (MG132-treated); details: 10 μM free compound, L-363 lysate
Chain of JAK1 (P23458 whole entry): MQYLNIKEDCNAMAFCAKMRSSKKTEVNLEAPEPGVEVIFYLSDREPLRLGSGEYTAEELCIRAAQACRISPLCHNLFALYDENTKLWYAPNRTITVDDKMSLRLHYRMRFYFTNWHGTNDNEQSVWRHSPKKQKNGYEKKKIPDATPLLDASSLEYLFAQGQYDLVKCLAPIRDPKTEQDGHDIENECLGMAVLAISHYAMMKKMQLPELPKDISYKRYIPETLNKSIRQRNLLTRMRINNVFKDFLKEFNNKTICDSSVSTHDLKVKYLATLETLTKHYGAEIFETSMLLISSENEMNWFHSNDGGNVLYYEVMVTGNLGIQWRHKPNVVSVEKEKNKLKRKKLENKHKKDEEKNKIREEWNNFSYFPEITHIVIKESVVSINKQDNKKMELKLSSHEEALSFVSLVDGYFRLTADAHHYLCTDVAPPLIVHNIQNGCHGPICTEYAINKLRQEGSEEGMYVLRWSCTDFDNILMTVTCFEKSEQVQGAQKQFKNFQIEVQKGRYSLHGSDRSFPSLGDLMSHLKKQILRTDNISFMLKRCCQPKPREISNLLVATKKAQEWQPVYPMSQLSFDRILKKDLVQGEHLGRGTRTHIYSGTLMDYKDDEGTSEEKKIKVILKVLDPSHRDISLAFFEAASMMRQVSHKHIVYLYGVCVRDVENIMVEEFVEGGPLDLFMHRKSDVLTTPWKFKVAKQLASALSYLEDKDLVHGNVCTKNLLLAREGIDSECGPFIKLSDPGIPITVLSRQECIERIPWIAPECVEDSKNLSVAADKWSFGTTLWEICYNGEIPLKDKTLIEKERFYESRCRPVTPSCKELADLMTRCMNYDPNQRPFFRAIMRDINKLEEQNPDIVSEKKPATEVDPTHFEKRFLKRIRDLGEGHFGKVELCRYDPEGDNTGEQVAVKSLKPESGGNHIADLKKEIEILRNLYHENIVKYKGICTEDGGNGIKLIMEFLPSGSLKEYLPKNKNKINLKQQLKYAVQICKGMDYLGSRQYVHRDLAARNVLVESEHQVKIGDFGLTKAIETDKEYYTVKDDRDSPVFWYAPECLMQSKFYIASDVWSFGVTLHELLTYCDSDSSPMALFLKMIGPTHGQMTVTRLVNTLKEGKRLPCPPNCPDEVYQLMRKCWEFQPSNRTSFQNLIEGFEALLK
Description: as §1, with “8).” for “10).”
as §2

JAK2 = JAK2 (Homo sapiens, UniProt O60674); experiment: Kinobeads competition binding, L-363 cell lysate; design: Identified kinases with CZC31326 from L-363 cell lysate; endogenous in cells; host or cells: L-363 (MG132-treated); details: 10 μM free compound, L-363 lysate
Chain of JAK2 (O60674 whole entry): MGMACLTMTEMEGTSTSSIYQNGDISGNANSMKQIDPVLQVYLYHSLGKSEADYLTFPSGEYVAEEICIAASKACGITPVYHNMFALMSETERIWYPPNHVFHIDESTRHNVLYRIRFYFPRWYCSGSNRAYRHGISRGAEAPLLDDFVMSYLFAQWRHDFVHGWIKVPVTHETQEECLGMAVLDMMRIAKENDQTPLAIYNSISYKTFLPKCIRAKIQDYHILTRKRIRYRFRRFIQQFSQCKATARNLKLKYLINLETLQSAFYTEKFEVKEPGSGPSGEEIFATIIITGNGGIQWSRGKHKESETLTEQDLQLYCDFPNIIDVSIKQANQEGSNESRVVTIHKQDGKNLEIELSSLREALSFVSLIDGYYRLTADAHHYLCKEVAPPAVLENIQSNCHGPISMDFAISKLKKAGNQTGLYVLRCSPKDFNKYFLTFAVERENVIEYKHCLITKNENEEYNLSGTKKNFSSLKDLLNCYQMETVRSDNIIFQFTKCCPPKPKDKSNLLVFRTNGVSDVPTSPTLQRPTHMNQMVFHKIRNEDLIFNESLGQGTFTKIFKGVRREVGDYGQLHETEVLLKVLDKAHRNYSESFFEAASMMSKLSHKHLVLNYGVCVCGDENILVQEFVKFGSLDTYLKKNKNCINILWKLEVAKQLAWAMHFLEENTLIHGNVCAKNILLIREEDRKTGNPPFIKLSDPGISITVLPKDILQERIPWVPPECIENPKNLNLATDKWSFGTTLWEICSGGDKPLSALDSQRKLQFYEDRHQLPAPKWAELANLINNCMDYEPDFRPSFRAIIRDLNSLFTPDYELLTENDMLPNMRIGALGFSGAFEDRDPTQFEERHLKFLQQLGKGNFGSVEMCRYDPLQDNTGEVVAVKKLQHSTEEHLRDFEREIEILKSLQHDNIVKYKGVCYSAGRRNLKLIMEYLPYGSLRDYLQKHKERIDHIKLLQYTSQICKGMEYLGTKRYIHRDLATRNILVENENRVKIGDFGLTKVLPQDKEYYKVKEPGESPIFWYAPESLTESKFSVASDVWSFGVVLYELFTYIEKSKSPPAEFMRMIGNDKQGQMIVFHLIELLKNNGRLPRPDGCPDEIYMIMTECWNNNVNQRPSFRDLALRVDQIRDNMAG
Description: as §1, with “8).” for “10).”
as §2

JNK2 = JNK2 (Homo sapiens, UniProt P45984); experiment: Kinobeads competition binding, L-363 cell lysate; design: Identified kinases with CZC31326 from L-363 cell lysate; endogenous in cells; host or cells: L-363 (MG132-treated); details: 10 μM free compound, L-363 lysate
Chain of JNK2 (P45984 whole entry): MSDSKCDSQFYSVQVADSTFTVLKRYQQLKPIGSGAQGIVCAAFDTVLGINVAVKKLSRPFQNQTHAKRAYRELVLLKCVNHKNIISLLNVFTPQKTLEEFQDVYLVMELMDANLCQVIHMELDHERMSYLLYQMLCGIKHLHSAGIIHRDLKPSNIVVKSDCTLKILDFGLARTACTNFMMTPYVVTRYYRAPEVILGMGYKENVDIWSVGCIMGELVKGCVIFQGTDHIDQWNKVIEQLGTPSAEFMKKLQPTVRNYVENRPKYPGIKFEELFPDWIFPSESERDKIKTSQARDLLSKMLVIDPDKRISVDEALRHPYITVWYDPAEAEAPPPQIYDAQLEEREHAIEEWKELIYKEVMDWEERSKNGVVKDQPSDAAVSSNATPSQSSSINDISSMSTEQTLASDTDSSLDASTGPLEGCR
Description: as §1, with “8).” for “10).”
as §2

Chain of LYN (P07948 whole entry): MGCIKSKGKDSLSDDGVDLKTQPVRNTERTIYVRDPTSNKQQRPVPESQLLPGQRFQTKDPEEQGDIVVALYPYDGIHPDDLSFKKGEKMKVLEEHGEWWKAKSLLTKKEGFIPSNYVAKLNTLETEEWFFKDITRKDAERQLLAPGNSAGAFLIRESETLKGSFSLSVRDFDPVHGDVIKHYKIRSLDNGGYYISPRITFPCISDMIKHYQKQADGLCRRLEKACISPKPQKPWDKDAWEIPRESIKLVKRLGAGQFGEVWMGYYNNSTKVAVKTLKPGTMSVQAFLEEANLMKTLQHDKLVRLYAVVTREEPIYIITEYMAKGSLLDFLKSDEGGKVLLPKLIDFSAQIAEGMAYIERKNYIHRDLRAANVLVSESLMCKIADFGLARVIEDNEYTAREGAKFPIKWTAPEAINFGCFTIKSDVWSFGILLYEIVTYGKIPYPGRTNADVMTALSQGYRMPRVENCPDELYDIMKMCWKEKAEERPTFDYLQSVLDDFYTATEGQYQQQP

- inhibition at 10 µM (LYN): 76.1%
- inhibition at 10 µM (IKKe): 89.4%
- inhibition at 10 µM (IRE1): 97.9%
- Competition % (JAK1): 97.2%
- Competition % (JAK2): 96.1%
- Competition % (JNK2): 88%
Structure (SMILES): CS(=O)(=O)Nc1ccccc1Nc1nc(Nc2cccc(OCCN)c2)ncc1Cl [CZC31326, N-(2-(2-(3-(2-aminoethoxy)phenylamino)-5-chloropyrimidin-4-ylamino)phenyl)methanesulfonamide]
